# Laboratory results from patent US20260356819A1, “OXOISOINDOLINYL-SUBSTITUTED […] DERIVATIVE AND USE THEREOF” (GLUETACS THERAPEUTICS (SHANGHAI) CO., LTD., priority 2023, published 2026).
# Columns and labels:
# Assay type in all cases: cell-based
# Conditions in all cases: compounds at 50 nM and 500 nM
# [1] = biological target: T1, IKZF2 (Homo sapiens, UniProt Q96SW2+Q9UKS7); assay: Western blot degradation of IKZF2 in hPBMCs (24 h)
# T1 construct: The supernatant was aspirated as the extracted total cell protein; endogenous in cells; host or cells: human peripheral blood mononuclear cells (hPBMCs)
# T1 sequence (Q9UKS7 whole entry): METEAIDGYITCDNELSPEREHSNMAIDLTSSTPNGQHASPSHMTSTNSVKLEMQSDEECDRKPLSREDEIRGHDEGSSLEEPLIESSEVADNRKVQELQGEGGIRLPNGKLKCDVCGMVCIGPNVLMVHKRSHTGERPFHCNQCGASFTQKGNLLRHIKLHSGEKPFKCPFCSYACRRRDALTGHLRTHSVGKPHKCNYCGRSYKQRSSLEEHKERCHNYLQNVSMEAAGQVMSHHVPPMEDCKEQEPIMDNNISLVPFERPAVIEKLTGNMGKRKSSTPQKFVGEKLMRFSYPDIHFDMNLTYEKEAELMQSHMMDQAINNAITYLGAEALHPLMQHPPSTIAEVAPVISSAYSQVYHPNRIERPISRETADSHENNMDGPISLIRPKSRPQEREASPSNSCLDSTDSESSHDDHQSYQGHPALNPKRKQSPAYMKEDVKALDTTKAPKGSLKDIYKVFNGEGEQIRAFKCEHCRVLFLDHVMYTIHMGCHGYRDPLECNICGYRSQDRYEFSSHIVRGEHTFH
# T1 sequence (Q96SW2 whole entry): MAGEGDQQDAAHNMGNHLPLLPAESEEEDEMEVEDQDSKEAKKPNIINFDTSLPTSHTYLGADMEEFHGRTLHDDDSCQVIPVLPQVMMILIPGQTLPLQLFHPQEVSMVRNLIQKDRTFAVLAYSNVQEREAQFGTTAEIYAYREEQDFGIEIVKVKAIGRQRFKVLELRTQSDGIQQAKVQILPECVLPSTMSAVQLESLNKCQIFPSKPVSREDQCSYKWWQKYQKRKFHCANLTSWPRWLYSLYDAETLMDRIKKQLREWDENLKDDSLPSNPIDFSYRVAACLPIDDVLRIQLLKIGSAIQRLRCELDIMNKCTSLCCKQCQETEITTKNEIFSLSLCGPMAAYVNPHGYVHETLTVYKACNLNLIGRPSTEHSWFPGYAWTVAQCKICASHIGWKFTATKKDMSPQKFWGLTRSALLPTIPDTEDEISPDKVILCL
# T1 sequence (Q16531 whole entry partner): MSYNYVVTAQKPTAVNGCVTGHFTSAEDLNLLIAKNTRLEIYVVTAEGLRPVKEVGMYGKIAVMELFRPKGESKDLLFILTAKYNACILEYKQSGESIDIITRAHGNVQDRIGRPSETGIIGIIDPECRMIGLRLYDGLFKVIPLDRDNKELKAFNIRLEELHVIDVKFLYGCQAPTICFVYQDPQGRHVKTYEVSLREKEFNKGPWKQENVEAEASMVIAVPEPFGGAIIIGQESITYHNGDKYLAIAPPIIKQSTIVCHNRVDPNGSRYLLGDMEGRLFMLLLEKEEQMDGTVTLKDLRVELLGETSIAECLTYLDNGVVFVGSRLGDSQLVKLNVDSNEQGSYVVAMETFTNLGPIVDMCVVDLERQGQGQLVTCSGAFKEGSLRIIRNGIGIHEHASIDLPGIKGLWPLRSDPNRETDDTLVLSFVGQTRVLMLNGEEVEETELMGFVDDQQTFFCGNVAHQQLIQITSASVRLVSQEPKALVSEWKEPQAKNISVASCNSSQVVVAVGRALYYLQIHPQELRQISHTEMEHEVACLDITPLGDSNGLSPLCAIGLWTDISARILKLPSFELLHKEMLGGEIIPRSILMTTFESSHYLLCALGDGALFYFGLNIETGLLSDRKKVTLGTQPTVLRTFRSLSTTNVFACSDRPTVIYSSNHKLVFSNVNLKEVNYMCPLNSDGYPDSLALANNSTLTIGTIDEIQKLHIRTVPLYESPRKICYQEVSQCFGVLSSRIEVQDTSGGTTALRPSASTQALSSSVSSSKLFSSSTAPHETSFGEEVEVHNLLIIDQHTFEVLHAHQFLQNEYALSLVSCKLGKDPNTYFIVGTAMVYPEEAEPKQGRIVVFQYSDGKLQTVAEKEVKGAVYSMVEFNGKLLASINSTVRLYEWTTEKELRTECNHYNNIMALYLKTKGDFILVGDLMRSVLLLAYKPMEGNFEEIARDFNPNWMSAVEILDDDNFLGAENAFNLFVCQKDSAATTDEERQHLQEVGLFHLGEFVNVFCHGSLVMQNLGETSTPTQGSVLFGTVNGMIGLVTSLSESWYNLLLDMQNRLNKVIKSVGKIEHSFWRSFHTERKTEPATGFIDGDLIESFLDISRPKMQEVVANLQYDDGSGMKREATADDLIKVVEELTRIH
# Method in brief: (§1)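 PBMC Western blot, 24 h treatment; test levels 50 nM and 500 nM. Band density ÷ internal control, normalised → % remaining; degradation (%) = 1 − remaining.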
# [2] = biological target: T2, WEE1 (Homo sapiens, UniProt P30291+Q96SW2); assay: Western blot degradation of WEE1 in hPBMCs (24 h)
# T2 construct: The supernatant was aspirated as the extracted total cell protein; endogenous in cells; host or cells: human peripheral blood mononuclear cells (hPBMCs)
# T2 sequence (P30291 whole entry): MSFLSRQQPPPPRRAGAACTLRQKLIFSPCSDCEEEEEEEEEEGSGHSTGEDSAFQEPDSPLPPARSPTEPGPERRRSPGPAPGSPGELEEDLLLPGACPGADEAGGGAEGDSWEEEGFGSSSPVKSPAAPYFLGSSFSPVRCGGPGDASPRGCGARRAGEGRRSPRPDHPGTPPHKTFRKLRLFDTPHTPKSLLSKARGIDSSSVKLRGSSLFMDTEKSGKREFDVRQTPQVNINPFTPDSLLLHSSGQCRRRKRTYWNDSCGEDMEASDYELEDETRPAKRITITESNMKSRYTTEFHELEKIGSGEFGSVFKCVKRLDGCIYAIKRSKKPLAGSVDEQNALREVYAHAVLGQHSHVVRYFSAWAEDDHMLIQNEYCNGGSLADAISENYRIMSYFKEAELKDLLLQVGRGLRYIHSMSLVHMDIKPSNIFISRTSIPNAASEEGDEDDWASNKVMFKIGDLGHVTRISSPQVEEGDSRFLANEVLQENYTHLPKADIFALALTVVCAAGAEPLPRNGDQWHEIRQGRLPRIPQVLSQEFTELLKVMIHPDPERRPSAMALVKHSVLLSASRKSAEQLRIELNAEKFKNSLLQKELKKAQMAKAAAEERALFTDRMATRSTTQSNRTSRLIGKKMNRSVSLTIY
# T2 sequence (Q96SW2 whole entry): as the sequence (Q96SW2 whole entry) above
# T2 sequence (Q16531 whole entry partner): as the sequence (Q16531 whole entry partner) above
# Method in brief: as §1
# [3] = biological target: T3, IKZF3 (Homo sapiens, UniProt Q96SW2+Q9UKT9); assay: Western blot degradation of IKZF3 in hPBMCs (24 h)
# T3 construct: The supernatant was aspirated as the extracted total cell protein; endogenous in cells; host or cells: human peripheral blood mononuclear cells (hPBMCs)
# T3 sequence (Q9UKT9 whole entry): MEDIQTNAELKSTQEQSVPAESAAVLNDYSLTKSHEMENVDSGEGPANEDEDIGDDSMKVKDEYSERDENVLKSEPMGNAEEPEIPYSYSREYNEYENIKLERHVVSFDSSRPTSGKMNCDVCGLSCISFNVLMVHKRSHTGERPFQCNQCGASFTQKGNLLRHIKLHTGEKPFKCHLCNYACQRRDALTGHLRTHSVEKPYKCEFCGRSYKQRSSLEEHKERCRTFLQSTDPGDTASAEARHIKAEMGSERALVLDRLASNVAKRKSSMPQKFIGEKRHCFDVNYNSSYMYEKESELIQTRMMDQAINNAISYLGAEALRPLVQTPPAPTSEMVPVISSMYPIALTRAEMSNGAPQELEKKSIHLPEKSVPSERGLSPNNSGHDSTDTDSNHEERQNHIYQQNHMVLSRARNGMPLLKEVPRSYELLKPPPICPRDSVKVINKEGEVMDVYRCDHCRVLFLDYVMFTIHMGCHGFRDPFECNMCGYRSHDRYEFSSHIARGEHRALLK
# T3 sequence (Q96SW2 whole entry): as the sequence (Q96SW2 whole entry) above
# T3 sequence (Q16531 whole entry partner): as the sequence (Q16531 whole entry partner) above
# Method in brief: as §1
# [4] = biological target: T4, CK1α (Homo sapiens, UniProt P48729+Q96SW2); assay: Western blot degradation of CK1α in hPBMCs (24 h)
# T4 construct: The supernatant was aspirated as the extracted total cell protein; endogenous in cells; host or cells: human peripheral blood mononuclear cells (hPBMCs)
# T4 sequence (P48729 whole entry): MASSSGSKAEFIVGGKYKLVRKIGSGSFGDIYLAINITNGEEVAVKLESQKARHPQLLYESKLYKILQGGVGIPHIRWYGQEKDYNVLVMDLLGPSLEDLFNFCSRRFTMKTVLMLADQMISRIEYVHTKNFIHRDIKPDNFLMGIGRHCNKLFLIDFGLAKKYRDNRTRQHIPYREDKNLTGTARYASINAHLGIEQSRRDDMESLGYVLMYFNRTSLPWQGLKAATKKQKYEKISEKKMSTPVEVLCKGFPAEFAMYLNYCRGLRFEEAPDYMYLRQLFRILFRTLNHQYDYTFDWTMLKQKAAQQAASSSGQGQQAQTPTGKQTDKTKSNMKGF
# T4 sequence (Q96SW2 whole entry): as the sequence (Q96SW2 whole entry) above
# T4 sequence (Q16531 whole entry partner): as the sequence (Q16531 whole entry partner) above
# Method in brief: as §1
# [5] = biological target: T5, IKZF1 (Homo sapiens, UniProt Q13422+Q96SW2); assay: Western blot degradation of IKZF1 in hPBMCs (24 h)
# T5 construct: The supernatant was aspirated as the extracted total cell protein; endogenous in cells; host or cells: human peripheral blood mononuclear cells (hPBMCs)
# Method in brief: as §1
# [6] = biological target: T6, GSPT1 (Homo sapiens, UniProt P15170+Q96SW2); assay: Western blot degradation of GSPT1 in hPBMCs (24 h)
# T6 construct: The supernatant was aspirated as the extracted total cell protein; endogenous in cells; host or cells: human peripheral blood mononuclear cells (hPBMCs)
# T6 sequence (P15170 whole entry): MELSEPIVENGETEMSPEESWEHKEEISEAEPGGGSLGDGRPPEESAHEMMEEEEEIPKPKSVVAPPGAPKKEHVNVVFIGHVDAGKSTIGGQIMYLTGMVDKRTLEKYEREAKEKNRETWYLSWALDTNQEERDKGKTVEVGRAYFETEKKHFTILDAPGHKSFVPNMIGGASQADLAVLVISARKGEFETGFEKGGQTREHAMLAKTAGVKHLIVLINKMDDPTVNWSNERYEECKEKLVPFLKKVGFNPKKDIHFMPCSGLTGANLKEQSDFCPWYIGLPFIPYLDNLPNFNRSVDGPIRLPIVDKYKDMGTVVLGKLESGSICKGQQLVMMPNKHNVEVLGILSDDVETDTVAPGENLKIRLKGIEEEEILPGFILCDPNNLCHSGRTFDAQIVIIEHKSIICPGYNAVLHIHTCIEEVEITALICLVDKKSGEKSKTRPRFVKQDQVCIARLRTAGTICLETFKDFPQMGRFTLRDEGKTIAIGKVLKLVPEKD
# T6 sequence (Q96SW2 whole entry): as the sequence (Q96SW2 whole entry) above
# T6 sequence (Q16531 whole entry partner): as the sequence (Q16531 whole entry partner) above
# Method in brief: as §1
SMILES,IKZF2 substrate protein remaining % [1],WEE1 substrate protein remaining % [2],IKZF3 substrate protein remaining % [3],CK1α substrate protein remaining % [4],IKZF1 substrate protein remaining % [5],GSPT1 substrate protein remaining % [6]
"O=C1CCN(N2C(=O)c3ccc(CN4CCC(c5c[nH]c6ncccc56)CC4)cc3C2=O)C(=O)N1 [GT-07582, 5-((4-(1H-pyrrolo[2,3-b]pyridin-3-yl)piperidin-1-yl)methyl)-2-(2,4-dioxotetrahydropyrimidin-1(2H)-yl)isoindoline-1,3-dione]",A (0% ≤ substrate protein remaining % ≤80%),A (0% ≤ substrate protein remaining % ≤80%),B (80%< substrate protein remaining % ≤100%),B (80%< substrate protein remaining % ≤100%),A (0% ≤ substrate protein remaining % ≤80%),A (0% ≤ substrate protein remaining % ≤80%)
"O=C1CCN(N2C(=O)c3ccc(CN4CCC(n5c(=O)[nH]c6cc(F)ccc65)CC4)cc3C2=O)C(=O)N1 [GT-07583, 2-(2,4-dioxotetrahydropyrimidin-1(2H)-yl)-5-((4-(5-fluoro-2-oxo-2,3-dihydro-1H-benzo[d]imidazol-1-yl)piperidin-1-yl)methyl)isoindoline-1,3-dione]",B (80%< substrate protein remaining % ≤100%),A (0% ≤ substrate protein remaining % ≤80%),B (80%< substrate protein remaining % ≤100%),B (80%< substrate protein remaining % ≤100%),B (80%< substrate protein remaining % ≤100%),A (0% ≤ substrate protein remaining % ≤80%)
"O=C1CCN(N2Cc3cc(CN4CCC(N5CCCc6cc(F)ccc65)CC4)ccc3C2=O)C(=O)N1 [GT-07584, 1-(5-((4-(6-fluoro-3,4-dihydroquinolin-1(2H)-yl)piperidin-1-yl)methyl)-1-oxoisoindolin-2-yl)dihydropyrimidine-2,4(1H,3H)-dione]",B (80%< substrate protein remaining % ≤100%),A (0% ≤ substrate protein remaining % ≤80%),B (80%< substrate protein remaining % ≤100%),B (80%< substrate protein remaining % ≤100%),A (0% ≤ substrate protein remaining % ≤80%),A (0% ≤ substrate protein remaining % ≤80%)
"O=C1CCN(N2Cc3cc(CN4CCC(N5CCOc6cc(F)ccc65)CC4)ccc3C2=O)C(=O)N1 [GT-07585, 1-(5-((4-(7-fluoro-2,3-dihydro-4H-benzo[b][1,4]oxazin-4-yl)piperidin-1-yl)methyl)-1-oxoisoindolin-2-yl)dihydropyrimidine-2,4(1H,3H)-dione]",B (80%< substrate protein remaining % ≤100%),A (0% ≤ substrate protein remaining % ≤80%),B (80%< substrate protein remaining % ≤100%),B (80%< substrate protein remaining % ≤100%),A (0% ≤ substrate protein remaining % ≤80%),A (0% ≤ substrate protein remaining % ≤80%)
"O=C1CCN(N2Cc3cc(CN4CCC(N5C(=O)COc6cc(F)ccc65)CC4)ccc3C2=O)C(=O)N1 [GT-07586, 1-(5-((4-(7-fluoro-3-oxo-2,3-dihydro-4H-benzo[b][1,4]oxazin-4-yl)piperidin-1-yl)methyl)-1-oxoisoindolin-2-yl)dihydropyrimidine-2,4(1H,3H)-dione]",B (80%< substrate protein remaining % ≤100%),A (0% ≤ substrate protein remaining % ≤80%),B (80%< substrate protein remaining % ≤100%),B (80%< substrate protein remaining % ≤100%),A (0% ≤ substrate protein remaining % ≤80%),A (0% ≤ substrate protein remaining % ≤80%)
"O=C1CCN(N2Cc3cc(CN4CCC(C5CCOc6cc(F)ccc65)CC4)ccc3C2=O)C(=O)N1 (stereo not drawn) [GT-07587, 1-(5-((4-(7-fluorochroman-4-yl)piperidin-1-yl)methyl)-1-oxoisoindolin-2-yl)dihydropyrimidine-2,4(1H,3H)-dione]",B (80%< substrate protein remaining % ≤100%),A (0% ≤ substrate protein remaining % ≤80%),B (80%< substrate protein remaining % ≤100%),B (80%< substrate protein remaining % ≤100%),A (0% ≤ substrate protein remaining % ≤80%),A (0% ≤ substrate protein remaining % ≤80%)
"O=C1CCN(N2Cc3cc(CN4CCC(=C5CCOc6cc(F)ccc65)CC4)ccc3C2=O)C(=O)N1 [GT-07588, 1-(5-((4-(7-fluorochroman-4-ylidene)piperidin-1-yl)methyl)-1-oxoisoindolin-2-yl)dihydropyrimidine-2,4(1H,3H)-dione]",B (80%< substrate protein remaining % ≤100%),B (80%< substrate protein remaining % ≤100%),B (80%< substrate protein remaining % ≤100%),B (80%< substrate protein remaining % ≤100%),B (80%< substrate protein remaining % ≤100%),A (0% ≤ substrate protein remaining % ≤80%)
"O=C1CCN(N2Cc3cc(CN4CCC(c5cccc6c(F)cccc56)CC4)ccc3C2=O)C(=O)N1 [GT-07589, 1-(5-((4-(5-fluoronaphthalen-1-yl)piperidin-1-yl)methyl)-1-oxoisoindolin-2-yl)dihydropyrimidine-2,4(1H,3H)-dione]",B (80%< substrate protein remaining % ≤100%),B (80%< substrate protein remaining % ≤100%),B (80%< substrate protein remaining % ≤100%),B (80%< substrate protein remaining % ≤100%),B (80%< substrate protein remaining % ≤100%),A (0% ≤ substrate protein remaining % ≤80%)
"O=C1CCN(N2Cc3cc(CN4CCC(c5noc6ccccc56)CC4)ccc3C2=O)C(=O)N1 [GT-07642, 1-(5-((4-(benzo[d]isoxazol-3-yl)piperidin-1-yl)methyl)-1-oxoisoindolin-2-yl)dihydropyrimidine-2,4(1H,3H)-dione]",B (80%< substrate protein remaining % ≤100%),B (80%< substrate protein remaining % ≤100%),B (80%< substrate protein remaining % ≤100%),B (80%< substrate protein remaining % ≤100%),B (80%< substrate protein remaining % ≤100%),A (0% ≤ substrate protein remaining % ≤80%)
"O=C1CCN(N2C(=O)c3ccc(CN4CC=C(c5n[nH]c6cc(F)ccc56)CC4)cc3C2=O)C(=O)N1 [GT-07643, 2-(2,4-dioxotetrahydropyrimidin-1(2H)-yl)-5-((4-(6-fluoro-1H-indazol-3-yl)-3,6-dihydropyridin-1(2H)-yl)methyl)isoindoline-1,3-dione]",B (80%< substrate protein remaining % ≤100%),B (80%< substrate protein remaining % ≤100%),B (80%< substrate protein remaining % ≤100%),B (80%< substrate protein remaining % ≤100%),B (80%< substrate protein remaining % ≤100%),A (0% ≤ substrate protein remaining % ≤80%)
"O=C1CCN(N2Cc3cc(CN4CCC(c5cccc6cnccc56)CC4)ccc3C2=O)C(=O)N1 [GT-07644, 1-(5-((4-(isoquinolin-5-yl)piperidin-1-yl)methyl)-1-oxoisoindolin-2-yl)dihydropyrimidine-2,4(1H,3H)-dione]",B (80%< substrate protein remaining % ≤100%),B (80%< substrate protein remaining % ≤100%),B (80%< substrate protein remaining % ≤100%),B (80%< substrate protein remaining % ≤100%),B (80%< substrate protein remaining % ≤100%),A (0% ≤ substrate protein remaining % ≤80%)
"O=C1CCN(N2Cc3cc(CN4CCC(c5ccnc6cc(F)ccc56)CC4)ccc3C2=O)C(=O)N1 [GT-07645, 1-(5-((4-(7-fluoroquinolin-4-yl)piperidin-1-yl)methyl)-1-oxoisoindolin-2-yl)dihydropyrimidine-2,4(1H,3H)-dione]",B (80%< substrate protein remaining % ≤100%),B (80%< substrate protein remaining % ≤100%),B (80%< substrate protein remaining % ≤100%),B (80%< substrate protein remaining % ≤100%),A (0% ≤ substrate protein remaining % ≤80%),A (0% ≤ substrate protein remaining % ≤80%)
